Test system: adults of Culex pipiens pallen
Experiment: Blood-sucking repelling test on forearms
Type: in vivo
Conditions: 1% test sample solution on forearms, 15 minutes exposure, 30° C., humidity 70%
Experimental: […] of 1% test sample solutions were prepared by dissolving 1 g of each of the fragrant compositions of Examples 1, 2 and 3, Comparative Example 3 (Pelargonium citrosum extract), and Comparative Example 4 (DEET) into 90 g of ethanol and adding 9 g of water.
On the sample solutions of Examples 1, 2 and 3 and Comparative Examples 3 and 4, a blood-sucking repelling test toward adults of Culex pipiens pallen was carried out, whereby strength of mosquito-repellency and persistency were compared.
The test was carried out in a constant-temperature room kept at a temperature of 30° C. and a humidity of 70%.
After 10 ml of each test sample solution was applied onto right and left forearms, each arm was entered for 15 minutes into a bag-shape wire netting having a size of 20 cm×15 cm in which 50 each of male and female mosquitoes which were 5 to 7 days after emergence were placed, whereby the mosquitoes were allowed to suck blood. This operation was repeatedly carried out 1 hour, 2 hours, 3 hours, 4 hours, and 6 hours after the sample application, the number of sucked places within the sucking time was counted, and repellency was calculated according to the following equation.
Repellency=[(X−Y)/X]×100(%)
X: the number of sucked places in the case that no test sample solution was applied.
Y: the number of sucked places in the case that a test sample solution was applied.

CCN(CC)C(=O)c1cccc(C)c1 [Comparative Example 4, N,N-Diethyl-m-toluamide]
100%: Repellency After 1 hour (1 hour after application) | Repellency After 2 hours (2 hours after application) | Repellency After 3 hours (3 hours after application) | Repellency After 4 hours (4 hours after application) | Repellency After 6 hours (6 hours after application)

Source: US20030138470A1, “Fragrant composition having mosquito-repelling effect” (TAKASAGO INTERNATIONAL CORPORATION, priority 2001, published 2003)
